In patent publication US5112741A, “Acetaldehyde trapping system” (Enzymatics, Inc., priority 1988, dated 1992):

Columns and labels:
[1] = Trapping of aldehyde/ketone oxidation product and alcohol conversion in enzymatic determination of alcohol (general statements); type: biochemical; conditions: diamine alone, without alpha-effect amine
Description: For reasons which are not well understood at the present time, the use of a combination of alpha-effect and primary amines according to the present invention dramatically increases the aldehyde/ketone trapping capacity of the amine trap, as compared to prior art amine traps consisting essentially of primary amine or of alpha-effect amine. Increases in trapping capacity, as measured by effective inactivation of aldehyde/ketone oxidation product in the reaction mixture, of up to about 100-fold over known prior art traps are typical.
With proper selection of amines, typical substrate conversions of about 100% are obtainable without dilution of the sample alcohol concentrations up to about 150 mM, thus permitting accurate and reliable end-point determinations. Such conversions are obtained by selection of amines for trap efficiency so that accumulation of active oxidation product is avoided. This ensures that a favorable reaction equilibrium is established, and that the catalyzing enzyme is not deactivated by oxidation product; the use of amines in the practice of the invention which tend to deactivate the catalyzing enzyme should, of course, be avoided.

alcohol dehydrogenase = assay: Relative equilibrium constants of trapping agents from NADH production by alcohol dehydrogenase after 10 minutes; type: biochemical; conditions: 5 mM trapping agent, 200 mM Glycine pH 9.5, 10 mM NAD, 5 mM ethanol, 125 IU ADH
Experimental: The relative equilibrium constants for trapping agents are listed below in Table 1. […] The reaction formulation was as follows: […] 5 mM ethanol 5 mM trapping agent 125 IU ADH

ADH = assay: Enzymatic oxidation of 65 mM ethanol by ADH/NAD in presence of trapping mixture; type: biochemical; conditions: 650 mM, Tris without alpha-effect amine, or carboxymethoxyamine and borate buffer without primary amine
Experimental: To a reaction mixture containing 5 IU ADH, 100 mM NAD, pH 9.5 and 65 mM ethanol was added a trapping mixture containing:
50 mM Carboxymethoxyamine, pH 10
A trapping mixture containing:
150 mM Carboxymethoxyamine, pH 10
was substituted for the trap in Example 1.
100 mM Hexanediamine, pH 10
150 mM Allylhydroxylamine, pH 9.8
100 mM Nitrobenzylhydroxylamine, pH 10

[2] = system: alcohol dehydrogenase (ADH); conditions: cited from earlier work
[3] = system: alcohol dehydrogenase (ADH); conditions: background statement; cited from earlier work

Row | RELATIVE EQUILIBRIUM CONSTANT (alcohol dehydrogenase) | Compound | further results
1 | 25.3 | C=CCON [Allylhydroxylamine] | –
2 | 38.6 | NOCC(=O)O [Carboxymethoxyamine] | Alcohol oxidation, single amine type (ADH): did not result in the complete oxidation of the alcohol
3 | 202.0 | Nitrobenzylhydroxylamine | –

Further lines, the compound ahead of its results:

Row | Compound | RELATIVE EQUILIBRIUM CONSTANT (alcohol dehydrogenase) | further results
4 | NCCCCCCN [1,6-hexanediamine] | – | Performance as sole trapping agent [1]: very satisfactory results are obtained
5 | CCON [Ethylhydroxylamine] | 11.8 | –
6 | CON [Methoxyamine] | 11.7 | –
7 | NOCc1ccccc1 [O-Benzylhydroxylamine] | 40.9 | –
8 | NC(CO)(CO)CO [Tris, Tris hydroxyl methylamine methane] | .2 | Conversion of the alcohol ([2]; ADH confined by semi-permeable membrane, continuous flow): about 18%; Capability of trapping high acetaldehyde concentrations ([2]; Tris by itself, acetaldehyde on the order of 85 mM): not capable by itself of reacting with and removing such high concentrations of acetaldehyde; Alcohol oxidation, single amine type (ADH): did not result in complete alcohol oxidation
9 | CC=O [acetaldehyde] | – | Acetaldehyde concentration that inhibits alcohol dehydrogenase [3]: greater than 1 mM
